# Assay results as given in US11518758B2, “Heteroarylaminopyrimidine amide autophagy inhibitors and methods of use thereof” (Deciphera Pharmaceuticals, LLC, priority 2019, dated 2022).
# How the values were obtained:
# [1] = test system: phospho-Serine 318 ATG13 (pATG13) in A375 cells; assay: pATG13 levels of mutant BRAF A375 cells after treatment with ULK inhibitors in combination with trametinib (ELISA); type: cell-based, human
# Method: Example 180. pATG13 Levels of Mutant BRAF A375 Cells after Treatment with ULK Inhibitors in Combination with Trametinib
# A375 human malignant melanoma cancer cells (20000 cells/well) were added to a 96-well tissue-culture treated plate in 100 μL of pre-warmed DMEM medium supplemented with 10% characterized fetal bovine serum (Invitrogen, Carlsbad, Calif.), 100 units/mL penicillin G, and 100 μg/mL streptomycin and allowed to grow overnight at 37° C., 5% CO2, and 95% humidity. The following day, 100 μL of media containing trametinib or DMSO as a control was added to wells. The final concentration of trametinib in wells was 250 nM. A dose response of a test compound (0.5 μL per well) was added. DMSO (0.5 μL) was added to control wells. The plate was briefly shaken to mix wells and then incubated at 37° C. overnight. The next day, the media was aspirated and cells were washed with Dulbecco's Phosphate Buffered Saline (Gibco). Cells were lysed using MPER lysis buffer (Pierce, Rockford, Ill.) containing Halt Phosphatase and Protease Inhibitors (Pierce, Rockford, Ill.) and Phosphatase inhibitor cocktail 2 (Sigma, St. Louis, Mo.) at 4° C. for 10 minutes with shaking.
# Cellular levels of phospho-Serine 318 ATG13 (pATG13) were measured via an ELISA method. Total ATG13 Antibody (Cell Signaling Cat #13273) was used to coat the wells. The plate was incubated at 4° C. overnight and washed with ELISA wash buffer (Biolegend Cat #421601). The wells were then blocked with assay diluent (Biolegend Cat #421203) for 1 hour at room temperature. Plate wells were washed with ELISA wash buffer. Cell lysate was added to wells and incubated at room temperature for 2 hours. Plate wells were washed with ELISA wash buffer. Biotinylated pS318-ATG13 antibody (Rockland Immunochemicals Cat #600-401-C49) was diluted in assay diluent and added to each well and incubated at room temperature for 1 hour. Plate wells were washed with ELISA wash buffer. Streptavidin linked to horseradish peroxidase (Thermo Fisher Cat #21140) was diluted in assay diluent and added to each well and incubated at room temperature for 1 hour. Plate wells were washed with ELISA wash buffer. High sensitivity TMB substrate (Biolegend Cat #421101) was added to each well and incubated at room temperature for 20 minutes. The reaction was stopped with 2N Sulfuric Acid. The plate was analyzed at on a plate reader measuring absorbance at 450 nm and 540 nm (background). Signal was calculated by first subtracting the background absorbance at 540 nm from the absorbance at 450 nm for each well. Next, the background corrected absorbance at 450 nm from blank wells was subtracted from test wells. Data was compared to control wells to determine % ATG13 phosphorylation. GraphPad Prism was used to calculate IC50 values.
# LRRK2 kinase = target: T1, LRRK2 kinase (Homo sapiens, UniProt Q5S007); assay: Biochemical assay for LRRK2 (coupled pyruvate kinase/lactate dehydrogenase assay); settings: 26.4 nM LRRK2 (residues 970-2528), 0.1 mM peptide substrate, 1 mM ATP
# T1 construct: purchased Thermo Fisher
# ULK1 kinase = target: T2, ULK1 kinase (Homo sapiens, UniProt O75385, E37A/K38A); assay: Biochemical assay for ULK1.3 (coupled pyruvate kinase/lactate dehydrogenase assay); settings: 0.1 nM ULK1 (from Beryllium), peptide substrate, 1 mM ATP
# T2 construct: (residues 1-283; ID NO: 2); purchased Beryllium
# T2 sequence (O75385 1-283 E37A/K38A): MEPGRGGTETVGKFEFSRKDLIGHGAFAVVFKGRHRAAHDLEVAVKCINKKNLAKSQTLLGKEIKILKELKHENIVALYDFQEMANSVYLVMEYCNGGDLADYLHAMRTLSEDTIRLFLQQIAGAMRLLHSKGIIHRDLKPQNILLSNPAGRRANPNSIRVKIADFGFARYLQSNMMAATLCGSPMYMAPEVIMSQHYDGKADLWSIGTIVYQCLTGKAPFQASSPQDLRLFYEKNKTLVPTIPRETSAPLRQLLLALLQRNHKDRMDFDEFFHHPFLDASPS
# Method: Example 175. Biochemical Assay for ULK1.3
# Activity of ULK1 kinase was determined spectroscopically using a coupled pyruvate kinase/lactate dehydrogenase assay that continuously monitors the ATP hydrolysis-dependent oxidation of NADH (e.g., Schindler et al. Science (2000) 289: 1938-1942). Assays were conducted in 384-well plates (100 uL final volume) using 0.1 nM ULK1 (from Beryllium), 0.075 mM peptide substrate (YANWLAASIYLDGKKK (SEQ ID NO: 5)), 1.5 units pyruvate kinase, 2.1 units lactate dehydrogenase, 1 mM phosphoenol pyruvate, 0.28 mM NADH and 1 mM ATP in assay buffer (100 mM Tris, pH 7.5, 15 mM MgCl2, 0.5 mM DTT, 0.004% (w/v) BSA, and 0.004% Triton X-100). Inhibition of ULK1 was measured by adding serial diluted test compound (final assay concentration of 1% DMSO). A decrease in absorption at 340 nm was monitored continuously for 6 hours at 30° C. on a multi-mode microplate reader (BioTek). The reaction rate was calculated using the 2-3 h time frame. The reaction rate at each concentration of compound was converted to percent inhibition using controls (i.e. reaction with no test compound and reaction with a known inhibitor) and IC50 values were calculated using software routines in Prism (GraphPad software).
# T1 sequence (Q5S007 with tags, fused parts or gaps): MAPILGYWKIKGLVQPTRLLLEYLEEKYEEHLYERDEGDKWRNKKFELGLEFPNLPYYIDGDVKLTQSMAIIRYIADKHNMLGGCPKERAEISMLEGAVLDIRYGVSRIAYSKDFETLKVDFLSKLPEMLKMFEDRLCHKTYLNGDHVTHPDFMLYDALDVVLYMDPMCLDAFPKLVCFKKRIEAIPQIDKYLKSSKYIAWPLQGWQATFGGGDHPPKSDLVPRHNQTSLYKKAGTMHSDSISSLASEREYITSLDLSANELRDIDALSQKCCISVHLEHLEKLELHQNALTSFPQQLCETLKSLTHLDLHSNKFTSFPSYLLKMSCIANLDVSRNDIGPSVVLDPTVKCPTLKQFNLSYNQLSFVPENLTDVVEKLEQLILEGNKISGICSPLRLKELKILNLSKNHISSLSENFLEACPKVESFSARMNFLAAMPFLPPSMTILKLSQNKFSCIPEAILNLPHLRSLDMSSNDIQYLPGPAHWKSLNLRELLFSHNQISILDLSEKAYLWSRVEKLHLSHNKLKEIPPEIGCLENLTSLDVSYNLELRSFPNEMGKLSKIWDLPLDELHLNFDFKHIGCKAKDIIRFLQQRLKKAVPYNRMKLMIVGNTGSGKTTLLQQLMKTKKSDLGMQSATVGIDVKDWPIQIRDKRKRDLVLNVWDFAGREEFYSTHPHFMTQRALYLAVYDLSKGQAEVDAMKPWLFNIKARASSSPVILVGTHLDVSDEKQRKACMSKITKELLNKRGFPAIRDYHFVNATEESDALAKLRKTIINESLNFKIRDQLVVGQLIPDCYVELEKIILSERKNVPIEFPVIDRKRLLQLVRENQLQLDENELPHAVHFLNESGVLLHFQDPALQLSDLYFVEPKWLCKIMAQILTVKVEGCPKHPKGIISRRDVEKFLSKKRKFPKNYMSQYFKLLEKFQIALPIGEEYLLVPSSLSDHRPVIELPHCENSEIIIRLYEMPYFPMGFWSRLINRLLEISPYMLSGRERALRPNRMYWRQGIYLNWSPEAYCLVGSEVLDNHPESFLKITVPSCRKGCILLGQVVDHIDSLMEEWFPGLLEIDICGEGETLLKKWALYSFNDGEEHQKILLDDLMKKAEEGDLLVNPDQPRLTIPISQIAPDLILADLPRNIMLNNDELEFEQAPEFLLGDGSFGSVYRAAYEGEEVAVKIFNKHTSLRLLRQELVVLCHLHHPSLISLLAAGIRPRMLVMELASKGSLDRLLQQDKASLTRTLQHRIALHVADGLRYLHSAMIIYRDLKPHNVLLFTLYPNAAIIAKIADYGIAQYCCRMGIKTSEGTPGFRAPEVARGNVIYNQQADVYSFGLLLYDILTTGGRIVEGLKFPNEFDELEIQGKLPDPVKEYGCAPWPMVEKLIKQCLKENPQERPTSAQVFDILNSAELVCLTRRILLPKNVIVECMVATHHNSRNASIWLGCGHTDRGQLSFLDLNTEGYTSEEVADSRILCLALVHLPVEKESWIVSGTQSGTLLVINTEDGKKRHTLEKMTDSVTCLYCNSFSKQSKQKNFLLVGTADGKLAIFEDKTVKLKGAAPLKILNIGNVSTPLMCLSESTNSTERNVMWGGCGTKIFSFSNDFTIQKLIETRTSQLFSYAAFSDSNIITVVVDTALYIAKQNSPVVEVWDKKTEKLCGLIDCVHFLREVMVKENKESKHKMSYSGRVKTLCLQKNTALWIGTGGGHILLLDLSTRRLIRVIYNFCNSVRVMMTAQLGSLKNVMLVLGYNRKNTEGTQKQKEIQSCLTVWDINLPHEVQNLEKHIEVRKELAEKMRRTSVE
Structure (SMILES),IC50 [1] [nM],IC50 (LRRK2 kinase) [nM],IC50 (ULK1 kinase) [nM]
Cc1nn(C2CCN(C)CC2)cc1Nc1ncc(C(F)(F)F)c(NCCCN2CCCCC2=O)n1 [Example 8],10 to 100,100 to 300,
Cc1nn(C2CCN(C(C)C)CC2)cc1Nc1ncc(C(F)(F)F)c(NCCCN2CCCCC2=O)n1 [Example 15],10 to 100,,
Cc1nn([C@@H]2CCN(C)C2)cc1Nc1ncc(C(F)(F)F)c(NCCCN2CCCCC2=O)n1 [Example 18],10 to 100,,
CCc1nn(C2CCN(C)CC2)cc1Nc1ncc(Br)c(NCCCN2CCCCC2=O)n1 [Example 53],100 to 300,,
Cc1nn([C@H]2CCN(C)C2)cc1Nc1ncc(Br)c(NCCCN2CCCCC2=O)n1 [Example 61],10 to 100,,25 to 100
CCN1CC[C@H](n2cc(Nc3ncc(Br)c(NCCCN4CCCCC4=O)n3)c(C)n2)C1 [Example 64],,300 to 600,
Cc1nn(C2CCN(C(C)C)CC2)cc1Nc1ncc(C(F)(F)F)c(NCCCN2CCCOC2=O)n1 [Example 68],100 to 300,,25 to 100
Cc1nn(C2CCN(C)CC2)cc1Nc1ncc(C(F)(F)F)c(NCCCN2CCCOCC2=O)n1 [Example 102],,,1 to 25
Cc1nn(C2CCN(C)CC2)cc1Nc1ncc(C(F)(F)F)c(NCCCN2CCOCCC2=O)n1 [Example 127],10 to 100,,1 to 25
